The test system of this experiment is HBsAg. Kind of experiment: HBsAg assay. It is filed as cell-based, hepatitis B virus. On the procedure:
Inhibition of HBsAg was determined in HepG2.2.15 cells. Cells were maintained in culture medium containing 10% fetal calf serum, […], Glutamine, penicillin/streptomycin. Cells were seeded in 96-well collagen-coated plate at a density of 30,000 cells/well. Serially diluted compounds were added to cells next day at the final DMSO concentration of 0.5%. Cells were incubated with compounds for 2-3 days, after which medium was removed. Fresh medium containing compounds was added to cells for additional 3-4 days. At day 6 after exposure of compounds, supernatant was collected, the HBsAg immunoassay (microplate-based chemiluminescence immunoassay kits, CLIA, Autobio Diagnosics Co., Zhengzhou, China, Catalog # CL0310-2) was used to determine the level of HBsAg according to manufactory instruction. Dose-response curves were generated and the EC50 value (effective concentrations that achieved 50% inhibitory effect) were determined using XLfit software. In addition, cells were seeded at a density of 5,000 cells/well for determination of cell viability in the presence and absence of compounds by using CellTiter-Glo reagent (Promega). Tables 1-3 show EC50 values obtained by the HBsAg assay for selected compounds.

[1] abbreviates: Hepatitis B virus, HepG2.2.15, 144 h, read-out: sAg EC50, μM, HepG2.2.15 cells, day 6.
[2] abbreviates: read-out: sAg EC50, HepG2.2.15 cells, day 6.

Where two headings read alike, the source gives them in different places.

What is called EC50 is the concentration that produces a half-maximal response.

`COc1cc2c(cc1Cl)-c1cc(=O)c(C(=O)O)cn1[C@H](C(C)C)CO2` (single isomer, unassigned) [Example 3]: the EC50 under setting [1] was determined as 0.032 µM. With `COc1cc2c(cc1Cl)-c1cc(=O)c(C(=O)O)cn1[C@@H](C(C)C)CO2` (single isomer, unassigned) [Example 4], under setting [1], the EC50 turned out to be 3.4 µM. For `COc1cc2c(cc1Cl)-c1cc(=O)c(C(=O)O)cn1[C@@H](CC(C)C)CO2` (single isomer, unassigned) [Example 6], the EC50 under setting [1] was determined as 3.8 µM. Same read-out and setting: next, `COc1cc2c(cc1Cl)-c1cc(=O)c(C(=O)O)cn1[C@H](CC(C)C)CO2` (single isomer, unassigned) [Example 7]: 0.61 µM; `COCCCOc1cc2c(nc1OC)-c1cc(=O)c(C(=O)O)cn1[C@@H](C(C)C)C2` (single isomer, unassigned) [Example 21]: 0.53 µM.

Regarding `COc1cc2c(nc1OC)-c1cc(=O)c(C(=O)O)cn1C(C(C)C)C2` (single isomer, unassigned) [Example 24, 6-Isopropyl-2,3-dimethoxy-10-oxo-5,10-dihydro-6H-pyrido[1,2-h][1,7]naphthyridine-9-carboxylic acid], the EC50 under setting [2] was 0.25 µM. Take `COc1cc2c(nc1OC)-c1cc(=O)c(C(=O)O)cn1C(C(C)C)C2` (single isomer, unassigned) [Example 25, 6-Isopropyl-2,3-dimethoxy-10-oxo-5,10-dihydro-6H-pyrido[1,2-h][1,7]naphthyridine-9-carboxylic acid]: the EC50 under setting [2] turned out to be 0.007 µM.

On to `COCCOc1cc2c(cc1Cl)-c1cc(=O)c(C(=O)O)cn1[C@H](C(C)C)CO2` (single isomer, unassigned) [Example 30], for which, under setting [1], the EC50 was 0.053 µM.

With `COCCOc1cc2c(cc1Cl)-c1cc(=O)c(C(=O)O)cn1[C@@H](C(C)C)CO2` (single isomer, unassigned) [Example 31], the EC50 under setting [1] worked out at 0.8 µM. Regarding `COCCCOc1cc2c(nc1Cl)-c1cc(=O)c(C(=O)O)cn1C1C(CCC1(C)C)O2` (single isomer, unassigned) [Example 82, 6-Chloro-7-(3-methoxypropoxy)-12,12-dimethyl-3-oxo-9a,11,12,12a-tetrahydro-3H,10H-cyclopenta[b]dipyrido[1,2-d:2′,3′-f][1,4]oxazepine-2-carboxylic acid], the EC50 under setting [2] was determined as 0.008 µM. On the same count and under the same terms, in the case of `COCCCOc1cc2c(nc1Cl)-c1cc(=O)c(C(=O)O)cn1C1C(CCC1(C)C)O2` (single isomer, unassigned) [Example 83, 6-Chloro-7-(3-methoxypropoxy)-12,12-dimethyl-3-oxo-9a,11,12,12a-tetrahydro-3H,10H-cyclopenta[b]dipyrido[1,2-d:2′,3′-f][1,4]oxazepine-2-carboxylic acid] it was 1 µM; in that of `CC(C)(C)C1Cc2cc3c(cc2-c2cc(=O)c(C(=O)O)cn21)OCCCO3` (single isomer, unassigned) [Example 91, 6-(Tert-butyl)-2-oxo-6,7,11,12-tetrahydro-2H,10H-[1,4]dioxepino[2,3-g]pyrido[2,1-a]isoquinoline-3-carboxylic acid], 0.94 µM; in that of `CC(C)(C)C1Cc2cc3c(cc2-c2cc(=O)c(C(=O)O)cn21)OCCCO3` (single isomer, unassigned) [Example 92, 6-(Tert-butyl)-2-oxo-6,7,11,12-tetrahydro-2H,10H-[1,4]dioxepino[2,3-g]pyrido[2,1-a]isoquinoline-3-carboxylic acid], 0.011 µM. Regarding `CC(C)(C)C1Cc2cc3c(cc2-c2cc(=O)c(C(=O)O)cn21)OCC1(COC1)CO3` (single isomer, unassigned) [Example 94, 6′-(Tert-butyl)-2′-oxo-6′,7′-dihydro-2′H,10′H,12′H-spiro[oxetane-3,11′-[1,4]dioxepino[2,3-g]pyrido[2,1-a]isoquinoline]-3′-carboxylic acid], the EC50 under setting [2] is 2.2 µM.

On to `CC(C)(C)C1Cc2cc3c(cc2-c2cc(=O)c(C(=O)O)cn21)OCC1(COC1)CO3` (single isomer, unassigned) [Example 95, 6′-(Tert-butyl)-2′-oxo-6′,7′-dihydro-2′H,10′H,12′H-spiro[oxetane-3,11′-[1,4]dioxepino[2,3-g]pyrido[2,1-a]isoquinoline]-3′-carboxylic acid], for which, under setting [2], the EC50 was 0.08 µM. Regarding `COCCCOc1cc2c(nc1OC)-c1cc(=O)c(C(=O)O)cn1C(C)(C(C)C)C2` (single isomer, unassigned) [Example 156, 6-Isopropyl-2-methoxy-3-(3-methoxypropoxy)-6-methyl-10-oxo-5,10-dihydro-6H-pyrido[1,2-h][1,7]naphthyridine-9-carboxylic acid], under setting [2], the EC50 is 0.001 µM. Still for that read-out and setting: next, `COCCCOc1cc2c(nc1OC)-c1cc(=O)c(C(=O)O)cn1C(C)(C(C)C)C2` (single isomer, unassigned) [Example 157, 6-Isopropyl-2-methoxy-3-(3-methoxypropoxy)-6-methyl-10-oxo-5,10-dihydro-6H-pyrido[1,2-h][1,7]naphthyridine-9-carboxylic acid]: 0.11 µM; `COCCCOc1cc2c(nc1OC)-c1cc(=O)c(C(=O)O)cn1C(C)(C(C)(C)C)C2` (single isomer, unassigned) [Example 159, 6-(Tert-butyl)-2-methoxy-3-(3-methoxypropoxy)-6-methyl-10-oxo-5,10-dihydro-6H-pyrido[1,2-h][1,7]naphthyridine-9-carboxylic acid]: 0.0009 µM.

Take `COCCCOc1cc2c(nc1OC)-c1cc(=O)c(C(=O)O)cn1C(C)(C(C)(C)C)C2` (single isomer, unassigned) [Example 160, 6-(Tert-butyl)-2-methoxy-3-(3-methoxypropoxy)-6-methyl-10-oxo-5,10-dihydro-6H-pyrido[1,2-h][1,7]naphthyridine-9-carboxylic acid]: the EC50 under setting [2] was found to be 0.038 µM. Still for that read-out and setting: in the case of `COCCCOc1cc2c([nH]c1=O)-c1cc(=O)c(C(=O)O)cn1C(C(C)C)C2` (single isomer, unassigned) [Example 166, 6-Isopropyl-3-(3-methoxypropoxy)-2,10-dioxo-2,5,6,10-tetrahydro-1H-pyrido[1,2-h][1,7]naphthyridine-9-carboxylic acid] it was 0.45 µM. The same measure, in the same setting: in the case of `COCCCOc1cc2c([nH]c1=O)-c1cc(=O)c(C(=O)O)cn1C(C(C)C)C2` (single isomer, unassigned) [Example 167, 6-Isopropyl-3-(3-methoxypropoxy)-2,10-dioxo-2,5,6,10-tetrahydro-1H-pyrido[1,2-h][1,7]naphthyridine-9-carboxylic acid] it was 1 µM. `COc1cc2c(cc1Cl)-c1cc(=O)c(C(=O)O)cn1C(CC(C)C)CO2` (stereo not shown) [Example 5, 2-Chloro-7-isobutyl-3-methoxy-11-oxo-6,7-dihydro-11H-benzo[f]pyrido[1,2-d][1,4]oxazepine-10-carboxylic acid]: the 50% effective concentration (EC50) under setting [1] was 0.91 µM.

Take `CCC1COc2cc(OC)c(Cl)cc2-c2cc(=O)c(C(=O)O)cn21` (stereo not shown) [Example 8, 2-Chloro-7-ethyl-3-methoxy-11-oxo-6,7-dihydro-11H-benzo[f]pyrido[1,2-d][1,4]oxazepine-10-carboxylic acid]: the 50% effective concentration (EC50) under setting [1] is 0.42 µM.

For the compound `COc1cc2c(cc1Cl)-c1cc(=O)c(C(=O)O)cn1C(CO)CO2` (stereo not shown) [Example 9], the half-maximal effective concentration (EC50) under setting [1] turned out to be 8.6 µM. Same read-out and setting: in the case of `COc1cc2c(cc1Cl)-c1cc(=O)c(C(=O)O)cn1C(C1CCC1)CO2` (stereo not shown) [Example 10, 2-Chloro-7-cyclobutyl-3-methoxy-11-oxo-6,7-dihydro-11H-benzo[f]pyrido[1,2-d][1,4]oxazepine-10-carboxylic acid] it was 0.24 µM; in that of `COc1cc2c(cc1Cl)-c1cc(=O)c(C(=O)O)cn1C(COC(C)C)CO2` (stereo not shown) [Example 11, 2-Chloro-7-(isopropoxymethyl)-3-methoxy-11-oxo-6,7-dihydro-11H-benzo[f]pyrido[1,2-d][1,4]oxazepine-10-carboxylic acid], 12 µM; in that of `COc1cc2c(cc1Cl)-c1cc(=O)c(C(=O)O)cn1CC(C(C)(C)C)O2` (stereo not shown) [Example 12, 6-(Tert-butyl)-2-chloro-3-methoxy-11-oxo-6,7-dihydro-11H-benzo[f]pyrido[1,2-d][1,4]oxazepine-10-carboxylic acid], 47 µM. Still for that read-out and setting: in the case of `COc1cc2c(cc1Cl)-c1cc(=O)c(C(=O)O)cn1C1CCC1O2` (stereo not shown) [Example 13, 11-Chloro-10-methoxy-2-oxo-5a,6,7,7a-tetrahydro-2H-benzo[f]cyclobuta[b]pyrido[1,2-d][1,4]oxazepine-3-carboxylic acid] it was 1.8 µM; in that of `COc1cc2c(cc1Cl)-c1cc(=O)c(C(=O)O)cn1C1CCCC1O2` (stereo not shown) [Example 14, 12-Chloro-11-methoxy-2-oxo-5a,7,8,8a-tetrahydro-2H,6H-benzo[f]cyclopenta[b]pyrido[1,2-d][1,4]oxazepine-3-carboxylic acid], 0.56 µM; in that of `COc1cc2c(cc1F)-c1cc(=O)c(C(=O)O)cn1C(C(C)C)CO2` (stereo not shown) [Example 15, 2-Fluoro-7-isopropyl-3-methoxy-11-oxo-6,7-dihydro-11H-benzo[f]pyrido[1,2-d][1,4]oxazepine-10-carboxylic acid], 0.9 µM. With `COc1ccc2c(c1)OCC(C(C)C)n1cc(C(=O)O)c(=O)cc1-2` (stereo not shown) [Example 16, 7-Isopropyl-3-methoxy-11-oxo-6,7-dihydro-11H-benzo[f]pyrido[1,2-d][1,4]oxazepine-10-carboxylic acid], the EC50 under setting [1] came out at 3.5 µM.

These data come from patent US11013726B2 (Arbutus Biopharma Corporation, priority 2016, dated 2021).
